From PMC5765751 (Journal of the American Chemical Society, 2017)

Experiment: physchem
Format: physicochemical
Conditions: pH 6

For O=C1NC(Cc2ccc(O)cc2)C(=O)NC1Cc1ccc(O)cc1 (stereo not shown) [cYY, 3,6-bis(4-hydroxybenzyl)piperazine-2,5-dione], the pKa was 9.9 ± 0.02.
